According to patent US8729055B2, “Ursolic acid derivative and pharmaceutical composition thereof” (Kaohsiung Medical University, priority 2010, dated 2014):

Tests used:
[1] = test system: NTUB1 cells (human bladder cancer cell line); test: MTT cytotoxicity assay against NTUB1 cells; format: cell-based; details: for IC50 / % of viability at the highest concentration: NTUB1 cells; for IC50: MTT, mean±SD (n=5); for cytotoxic activity against NTUB1 cells, in words: comparison with the parent compound, from Table 1; for % of viability at the highest concentration: given when 50% inhibition not reached at the highest concentration (30 μM)
Procedure: In the present embodiment, cell culture and MTT assay is used for cell viability/proliferation. NTUB1, a human bladder cancer cell line, is established from a high-grade bladder cancer. […] The cells are cultured at 37° C. in a humidified atmosphere containing 5% CO2. […] Briefly, the cells are plated at a density of 1800 cells/well in 96-well plates and incubated at 37° C. overnight before drug exposure. Cells are then cultured in the presence of graded concentrations of the test compound with or without various concentrations of cisplatin (Pharmacia & Upjohn, Milan, Italy) at 37° C. for 72 h. At the end of the culture period, 50 μL of MTT (2 mg/mL in PBS) is added to each well and allowed to react for 3 h. Following centrifugation of plates at 1000 g for 10 min, media are removed and 150 μL DMSO are added to each well. The proportions of surviving cells are determined by absorbance spectrometry at 540 nm using […]) microplate reader. The cell viability is expressed as a percentage to the viable cells of control culture condition. The IC50s of each group are calculated by the […] analysis and presented as mean±standard deviation (SD). […] In Table 1, data are presented as mean±SD (n=5). […] The control cells are treated with culture medium containing 0.1% DMSO. Cisplatin is used as a positive control.

accumulation of NO2− = test: Experiment A: accumulation of NO2− (Griess reaction); format: cell-based, rat; details: for percentage of inhibition at 30 μM, A NO2−: given when 50% inhibition not reached; for IC50: inhibition of accumulation of NO2−
Procedure: (§1) This example illustrates the anti-inflammatory activities of compounds 5, 7-11, 20 and 21. The anti-inflammatory activities of compounds 5, 7-11, 20 and 21 are studied in vitro for their inhibitory effects on chemical mediators released from neutrophils, mast cells or macrophages of rat.
(§2) Please refer to Table 2, which illustrates the inhibitory effects of compounds 5, 7-11, 20 and 21 on the accumulation of NO2^− (Experiment A), superoxide anion formation (n mol/10^6 cells/30 min) from rat neutrophils stimulated with PMA (Experiment B), and the release of β-glucuronidase from rat peritoneal mast cells stimulated with compound 48/80 (Experiment C). In Table 2, when 50% inhibition could not be reached at the highest concentration, the percentage of inhibition at 30 μM is given.
In the Experiment A, Nitric oxide (NO) in the cell medium is determined by the Griess reaction, and N-(3-aminomethyl)benzylamide (1400 W) is used as a positive control.

NTUB1 cells [2] = test: Cell cycle progression by FACS in propidium iodide-stained NTUB1 cells; format: cell-based, human
Procedure: These cells are harvested by trypsinization, washed with 1×PBS, and fixed in ice-cold MeOH at −20° C. After overnight incubation, the cells are washed with PBS and incubated with 50 μg/mL propidium iodide (Sigma, Co) and 50 μg/mL RNase A (Sigma, Co) in PBS at room temperature for 30 min. The fractions of cells in each phase of cell cycle are analyzed using FACScan flow cytometer and Cell Quest software (Becton Dickinson).

PC3 cells = test: MTT cytotoxicity assay against PC3 cells; format: cell-based, human; details: 72 h
Source text: (§3) The data shown in FIGS. 4(A) to 4(C) represent mean±SD (n=3) for one experiment performed in triplicate. The symbols, “*” represents p<0.05, “**” represents p<0.01, and “***” represents p<0.001, compared to the control value, respectively.

A549 cells = test: MTT cytotoxicity assay against A549 cells; format: cell-based, human; details: 72 h
Source text: as §3

NTUB1 cells [3] = test: Intracellular ROS by DCFH-DA flow cytometry in NTUB1 cells; format: cell-based, human
Procedure: As to the quantitative analysis of intracellular ROS, the flow cytometry analysis is also adopted. Cells are plated and treated as above-mentioned conditions. Ten-micromolar dichlorofluorescein diacetate (DCFH-DA; Molecular Probes, Eugene, Oreg.) is added to the treated cells 30 min prior harvest. The cells are collected by trypsinization and washed with PBS. The green fluorescence of intracellular DCF (2′,7′-dichlorofluorescein) is then analyzed immediately by FACScan flow cytometer with a 525-nm band pass filter (Becton Dickinson).

[4] = test system: rat neutrophils stimulated with PMA; test: Experiment B: superoxide anion formation from rat neutrophils stimulated with PMA; format: cell-based; details: PMA (3 nM)
Procedure: This example illustrates the anti-inflammatory activities of compounds 5, 7-11, 20 and 21. The anti-inflammatory activities of compounds 5, 7-11, 20 and 21 are studied in vitro for their inhibitory effects on chemical mediators released from neutrophils, mast cells or macrophages of rat. […] In Table 2, when 50% inhibition could not be reached at the highest concentration, the percentage of inhibition at 30 μM is given. In the Experiment B, superoxide anion generation is measured in terms of superoxide dismutase-inhibitable cytochrome c reduction. Neutrophils isolated from the peripheral blood of the rats are washed and suspended in Hanks' balanced salt solution (HBSS). Neutrophil suspension is preincubated with DMSO or drugs, and then superoxide dismutase (SOD) or HBSS is added into the blank and test wells, respectively. The final volume of DMSO in the reaction mixture is ≦0.5%. After addition of cytochrome c, reaction is initiated by challenge with PMA (3 nM). Thirty minutes later, the reaction is terminated by centrifugation and the absorbance changes of supernatant are monitored at 550 nm in a microplate reader. The superoxide anion generation is measured in terms of superoxide dismutase-inhibitable cytochrome c reduction. Trifluoperazine is used as a positive control for the Experiment B.

[5] = test system: rat peritoneal mast cells stimulated with compound 48/80; test: Experiment C: release of β-glucuronidase from rat peritoneal mast cells stimulated with compound 48/80; format: cell-based; details: Mast cell; rat peritoneal mast cells, compound 48/80
Procedure: as §1, §2
In the Experiment C, Heparinized Tyrode's solution is injected into the peritoneal cavity of exsanguinated rat (Sprague-Dawley, 250-300 g). After abdominal massage, cells in the peritoneal fluid are harvested and then separated in 38% bovine serum albumin (BSA) in glucose-free Tyrode's solution. […] Fifteen min after the addition of compound 48/80 ([…]), β-glucuronidase (phenolphthalein-β-glucuronide as substrate, 550 nm) in the supernatant is determined. The total content of β-glucuronidase is measured after treatment of the cell suspension with Triton X-100, and the percentage release is calculated. […]

[6] = 50 μM, compared across the three cell lines

## C[C@H]1[C@H](C)CC[C@]2(C(=O)O)CC[C@]3(C)C(=CC[C@@H]4[C@@]5(C)CC[C@H](O)C(C)(C)[C@@H]5CC[C@]43C)[C@H]12 [Compound 1, ursolic acid]
[1]; Homo sapiens, 72 h
  IC50: 29.4 ± 1.9 µM

## COC(=O)[C@]12CC[C@@H](C)[C@H](C)[C@H]1C1=CC[C@@H]3[C@@]4(C)CC[C@H](O)C(C)(C)[C@@H]4CC[C@@]3(C)[C@]1(C)CC2 [Compound 2]
[1]; 72 h
  IC50: 37.1 µM
[1]
  cytotoxic activity against NTUB1 cells, in words: decreases the cytotoxic activity

## CCOC(=O)C12CCC(C)C(C)C1C1=CCC3C4(C)CCC(O)C(C)(C)C4CCC3(C)C1(C)CC2 (stereo not drawn) [Compound 3]
[1]; 72 h
  IC50: 13.5 µM

## CC(C)OC(=O)[C@]12CC[C@@H](C)[C@H](C)[C@H]1C1=CC[C@@H]3[C@@]4(C)CC[C@H](O)C(C)(C)[C@@H]4CC[C@@]3(C)[C@]1(C)CC2 [Compound 5, Isopropyl 3β-hydroxyurs-12-en-28-oate]
Accumulation of NO2−
  percentage of inhibition at 30 μM, A NO2−: 45.3 ± 7.0%
NTUB1 cells [2]; 20-40 μM, 48 h
  effect on cell cycle progression: arrests G2/M phase before accumulation of cells in sub-G1 phase
NTUB1 cells [2]; 20 and 40 μM (20-40 μM), 24 h
  effect on cell cycle progression: induces G1 phase arrest in a dose-dependent manner
NTUB1 cells [2]; 20 and 40 μM, 24 h
  apoptotic cell death: increase in the apoptotic cell death
PC3 cells; [6]
  cytotoxic effect at 50 μM, PC3 cells: same cytotoxic effect
PC3 cells; MTT, FIG. 4
  cytotoxic effect against PC3 cells compared with NTUB1 cells: do not exhibit stronger cytotoxic effects
[1]; 50 μM, 72 h, compared across the three cell lines
  cytotoxic effect at 50 μM, NTUB1 cells: same cytotoxic effect
[1]; 72 h
  IC50: 7.97 ± 0.48 µM
A549 cells; [6]
  cytotoxic effect at 50 μM, A549 cells: same cytotoxic effect
A549 cells; MTT, FIG. 4
  cytotoxic effect against A549 cells compared with NTUB1 cells: do not exhibit stronger cytotoxic effects
NTUB1 cells [3]; 40 μM, 24 h, effect inhibited by NAC
  intracellular ROS: significant increase in intracellular ROS
NTUB1 cells [3]; 20 and 40 μM, 48 h, effect not inhibited by NAC
  intracellular ROS: significant increase in intracellular ROS

## CCCCCOC(=O)[C@]12CC[C@@H](C)[C@H](C)[C@H]1C1=CC[C@@H]3[C@@]4(C)CC[C@H](O)C(C)(C)[C@@H]4CC[C@@]3(C)[C@]1(C)CC2 [Compound 7, Pentyl 3β-hydroxyurs-12-en-28-oate]
Accumulation of NO2−
  percentage of inhibition at 30 μM, A NO2−: 29.8 ± 3.3%
[4]
  IC50: 10.8 ± 2.2 µM
[1]; 72 h
  IC50: 27.8 ± 1.63 µM

## CCCCCCOC(=O)[C@]12CC[C@@H](C)[C@H](C)[C@H]1C1=CC[C@@H]3[C@@]4(C)CC[C@H](O)C(C)(C)[C@@H]4CC[C@@]3(C)[C@]1(C)CC2 [Compound 8, Hexyl 3β-hydroxyurs-12-en-28-oate]
[4]
  IC50: 11.5 ± 0.9 µM
[1]; 72 h
  IC50: 26.2 ± 2.51 µM

## CC(C)=CCOC(=O)[C@]12CC[C@@H](C)[C@H](C)[C@H]1C1=CC[C@@H]3[C@@]4(C)CC[C@H](O)C(C)(C)[C@@H]4CC[C@@]3(C)[C@]1(C)CC2 [Compound 9, 3′-Methyl-2′-butenyl 3β-hydroxyurs-12-en-28-oate]
Accumulation of NO2−
  percentage of inhibition at 30 μM, A NO2−: 45.2 ± 5.9%
[4]
  IC50: 6.1 ± 1.9 µM
[1]; 72 h
  IC50: 10.9 ± 2.01 µM

## C[C@H]1[C@H](C)CC[C@]2(C(=O)OCCO)CC[C@]3(C)C(=CC[C@@H]4[C@@]5(C)CC[C@H](O)C(C)(C)[C@@H]5CC[C@]43C)[C@H]12 [Compound 10, 2′-Hydroxyethyl 3β-hydroxyurs-12-en-28-oate]
Accumulation of NO2−
  percentage of inhibition at 30 μM, A NO2−: 33.1 ± 7.2%
[1]; 72 h
  IC50: 19.5 µM
[1]
  cytotoxic activity against NTUB1 cells, in words: attenuate the cytotoxicity

## C[C@H]1[C@H](C)CC[C@]2(C(=O)OCC(=O)OC(C)(C)C)CC[C@]3(C)C(=CC[C@@H]4[C@@]5(C)CC[C@H](O)C(C)(C)[C@@H]5CC[C@]43C)[C@H]12 [Compound 11, Tert-Butoxycarbonylmethyl 3β-hydroxyurs-12-en-28-oate]
Accumulation of NO2−
  IC50: 21.7 ± 6.5 µM
[1]; 72 h
  IC50: > 30 µM
[1]
  % of viability at the highest concentration: 64.85%

## CC1CCC2(C(=O)O)CCC3(C)C(=CCC4C5(C)CCC(=O)C(C)(C)C5CCC43C)C2C1C (stereo not drawn) [Compound 18]
[1]; 72 h
  IC50: 21.4 ± 15.5 µM
[1]
  cytotoxic activity against NTUB1 cells, in words: increases cytotoxicities

## COC(=O)C12CCC(C)C(C)C1C1=CCC3C4(C)CCC(=O)C(C)(C)C4CCC3(C)C1(C)CC2 (stereo not drawn) [Compound 19]
[1]; 72 h
  IC50: 29.6 ± 4.65 µM

## C[C@H]1[C@H](C)CC[C@]2(C(=O)O)CC[C@]3(C)C(=CC[C@@H]4[C@@]5(C)CCC(=O)OC(C)(C)[C@@H]5CC[C@]43C)[C@H]12 [Compound 20, 4-Hydroxy-3,4-seco-ursan-12-en-28-oic acid 3,4 lactone]
Accumulation of NO2−
  percentage of inhibition at 30 μM, A NO2−: 41.0 ± 9.6%
[1]; 72 h
  IC50: > 30 µM
[1]
  % of viability at the highest concentration: 63.91%
  cytotoxic activity against NTUB1 cells, in words: weakens cytotoxic activities

## C[C@H]1[C@H](C)CC[C@]2(C(=O)O)CC[C@]3(C)C(=CC[C@@H]4[C@@](C)(CCC(=O)O)[C@H](C(C)(C)O)CC[C@]43C)[C@H]12 [Compound 22, 3,4-seco-Ursan-4-hydroxy-12-en-3,28-dioic acid]
[1]; 72 h
  IC50: > 30 µM
[1]
  % of viability at the highest concentration: 56.04%
  cytotoxic activity against NTUB1 cells, in words: weakens cytotoxic activities

## N.N.[Cl][Pt][Cl] [cisplatin, reference compound]
NTUB1 cells [2]; 10 μM, 48 h
  effect on cell cycle progression: S phase arrest
NTUB1 cells [2]; 10 and 20 μM, 24 h
  effect on cell cycle progression: dose dependent accumulation of cells in the G1 phase with a concomitant increase in the population of sub-G1 phase
[1]; 72 h
  IC50: 3.27 ± 0.1 µM
NTUB1 cells [3]; 10 μM, 24 h, effect inhibited by NAC
  intracellular ROS: significant increase in intracellular ROS
NTUB1 cells [3]; 10 μM, 48 h, effect not inhibited by NAC
  intracellular ROS: significant increase in intracellular ROS

## CCN(CC)CCCC(C)Nc1c2ccc(Cl)cc2nc2ccc(OC)cc12 (stereo not drawn) [mepacrine, reference compound]
[5]
  IC50: 12.4 ± 1.6 µM

## CN1CCN(CCCN2c3ccccc3Sc3ccc(C(F)(F)F)cc32)CC1 [trifluoperazine, reference compound]
[4]; Neutrophil
  IC50: 7.3 ± 0.6 µM

## N-(3-aminomethyl)benzylamide [1400 W, reference compound]
Accumulation of NO2−
  IC50: 5 ± 1.5 µM
